Tests used:
[1] = Stability of carnosine in contact lens care solution; type: physicochemical; conditions: under circumstances; carnosine utilized by bacteria and/or fungi in the solution
[2] = phonophoresis or subconjunctival injection, cited from earlier work

Row | Structure (SMILES) | stability of carnosine present in the contact lens care solution [1] | effectiveness of carnosine administration in itself to the eye ([2]; quickly metabolised by carnosinase in the eye) | time within which carnosine accumulates in the aqueous humour after topical administration ([2]; 1% N-acetylcarnosine added to the eye)
1 | NCCC(=O)N[C@@H](Cc1cnc[nH]1)C(=O)O [carnosine, (2S)-2-[(3-Amino-1-oxopropyl)amino]-3-(3H-imidazol-4-yl)propanoic acid] | less stable than expected | ineffective | 
2 | CC(=O)NCCC(=O)N[C@@H](Cc1cnc[nH]1)C(=O)O [N-acetylcarnosine, reference compound] |  |  | 15 to 30 min

Reference: US20110230424A1, “OPHTHALMIC SOLUTIONS, INCLUDING CONTACT LENS CARE AND EYE DROPS COMPRISING CARNOSINE, PREFERABLY IN COMBINATION WITH DEXPANTHENOL AND/OR HYALURONIC ACID” (priority 2008, published 2011)
